These results are taken from US9260454B2, “Isothiazolopyridine-2-carboxamides and their use as pharmaceuticals” (Sanofi, priority 2011, dated 2016).

The test system of assay [1] is micromass culture of mesenchymal cells. Conditions: 30 μM in micromass culture; cited from earlier work.
The next assay addresses recombinant human TGM2 (Homo sapiens (Human), UniProt P21980). Put plainly: Assay for quantification of TGM2 transglutaminase inhibitory activity (fluorescence, H-Abz-APE(CAD-DNP)QEA-OH substrate). The following applies: recombinant human TGM2 25 μg/ml; substrate 50 μM, glycine methyl ester 5 mM; 15 min preincubation at room temperature; pH 7.5; read-out: IC50 values for inhibition of TGM2. The assay is classed as biochemical. As for the experimental part: a) Assay Method for the Quantification of TGM2 Transglutaminase Inhibitory Activity
The activity of the compounds for inhibition of TGM2 was determined with recombinant human TGM2 (Zedira GmbH, Darmstadt, Germany, Product Nr. T002) and the peptidic compound H-Abz-APE(CAD-DNP)QEA-OH as substrate (Zedira GmbH, Darmstadt, Germany, Product Nr. A102; CAD-DNP is N^ω-2,4-dinitrophenyl-cadaverine, i.e. the carboxylic acid group in the side chain of the respective glutamyl moiety is amidated with the primary amino group of N-(2,4-dinitrophenyl)pentane-1,5-diamine; cf. also K. Oertel et al., Anal. Biochem. 2007, 367: 152-158). For this purpose, 2 μl of a solution of different concentrations of the test compound in dimethyl sulfoxide was added to 28 μl of buffer (50 mM TRIS, 100 mM NaCl, 10 mM CaCl2, pH 7.5) and 10 μl of a TGM2 solution to give a TMG2 test concentration of 25 μg/ml, and the mixture incubated for 15 minutes at room temperature in a 96 half-well microtiter plate. The enzyme reaction was started by the addition of 10 μl of substrate solution containing H-Abz-APE(CAD-DNP)QEA-OH and glycine methyl ester hydrochloride in buffer to give test concentrations of H-Abz-APE(CAD-DNP)QEA-OH of 50 μM and of glycine methyl ester hydrochloride of 5 mM. The time course of the reaction was monitored with excitation at 318 nm and measurement at emission wavelength 418 nm in a microtiter plate reader (SpectraMax M5, Molecular Devices) over 15 minutes. Rates were calculated from the linear part of the curve (generally between 5 and 10 minutes). IC50 values were calculated from the means (duplicates) of a dilution series of the compound, using the software Softmax Pro (Version 4.8, Molecular Devices).

Another assay has as its system chondrocytes. Conditions: cited from earlier work.

Molecules are shown by their SMILES.

Sequence of recombinant human TGM2 (P21980 whole entry): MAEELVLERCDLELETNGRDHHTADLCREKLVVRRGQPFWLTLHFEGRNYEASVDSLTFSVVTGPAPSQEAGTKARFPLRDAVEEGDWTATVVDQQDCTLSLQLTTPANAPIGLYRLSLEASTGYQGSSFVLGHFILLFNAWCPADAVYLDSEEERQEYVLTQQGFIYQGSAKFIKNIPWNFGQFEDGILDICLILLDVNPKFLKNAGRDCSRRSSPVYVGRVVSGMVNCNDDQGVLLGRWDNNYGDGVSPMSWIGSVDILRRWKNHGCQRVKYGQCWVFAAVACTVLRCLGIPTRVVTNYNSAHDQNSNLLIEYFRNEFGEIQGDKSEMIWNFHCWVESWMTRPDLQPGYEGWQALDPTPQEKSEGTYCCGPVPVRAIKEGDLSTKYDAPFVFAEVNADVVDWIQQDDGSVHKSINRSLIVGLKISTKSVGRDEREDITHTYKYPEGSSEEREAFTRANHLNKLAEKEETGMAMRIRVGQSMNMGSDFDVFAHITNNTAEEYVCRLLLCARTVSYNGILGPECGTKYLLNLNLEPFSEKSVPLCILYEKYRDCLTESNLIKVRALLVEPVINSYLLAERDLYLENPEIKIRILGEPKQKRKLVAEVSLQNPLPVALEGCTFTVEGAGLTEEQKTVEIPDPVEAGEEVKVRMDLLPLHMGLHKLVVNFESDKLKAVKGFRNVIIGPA

`O=C(NC(Cc1c[nH]c2ccc(F)cc12)C(=O)NCC1CC(Br)=NO1)OCc1cnc2ccccc2c1` (centres unmarked) [ERW1069]: in assay [1], the Xylt2 expression result was “increase” and the proteoglycan deposition result was “increase”.
As a reminder, the IC50 is the concentration needed to halve the response being measured. In the case of `O=C(N1CCOCC1)n1sc2c(ccc[n+]2[O-])c1=O` [Example 5], the IC50 at recombinant human TGM2 worked out at 270 nM.
Turning to `N#Cc1ccc(N2CCN(C(=O)n3sc4ncccc4c3=O)CC2)cc1` [Example 6], the IC50 at recombinant human TGM2 worked out at 1100 nM.
Same read-out and setting: the value for `O=C(O)CN1CCN(C(=O)n2sc3ncccc3c2=O)CC1` [Example 8] was 18000 nM; that for `O=C(O)CN1CCN(C(=O)n2sc3c(ccc[n+]3[O-])c2=O)CC1` [Example 10] was 12000 nM.
In the case of `CC(NC(=O)n1sc2c(ccc[n+]2[O-])c1=O)c1ccc2c(c1)OCCO2` (centres unmarked) [Example 16], the IC50 on recombinant human TGM2 is 26000 nM.
With `O=C(CCOc1ccccc1)N1CCN(C(=O)n2sc3ncccc3c2=O)CC1` [Example 20], the IC50 at recombinant human TGM2 was determined as 110 nM.
On to `O=C(CCOc1ccccc1)N1CCN(C(=O)n2sc3c(ccc[n+]3[O-])c2=O)CC1` [Example 21], for which the IC50 on recombinant human TGM2 amounted to 14 nM.
For the compound `COc1ccc(CNC(=O)n2sc3c(ccc[n+]3[O-])c2=O)cc1OC` [Example 24], the IC50 at recombinant human TGM2 turned out to be 370 nM.
Turning to `CC(=O)N1CCN(C(=O)n2sc3ncccc3c2=O)CC1` [Example 26], the IC50 at recombinant human TGM2 was 340 nM.
Turning to `O=C(C1CC1)N1CCN(C(=O)n2sc3ncccc3c2=O)CC1` [Example 27], the IC50 on recombinant human TGM2 stood at 420 nM.
Same read-out and setting: the value for `O=C(C1CC1)N1CCN(C(=O)n2sc3c(ccc[n+]3[O-])c2=O)CC1` [Example 28] was 45 nM.
Regarding `CC(C)C(=O)N1CCN(C(=O)n2sc3c(ccc[n+]3[O-])c2=O)CC1` [Example 29], the IC50 on recombinant human TGM2 is 62 nM.
Take `CCS(=O)(=O)N1CCN(C(=O)n2sc3ncccc3c2=O)CC1` [Example 36]: the IC50 on recombinant human TGM2 came to 430 nM.
With `CCS(=O)(=O)N1CCN(C(=O)n2sc3c(ccc[n+]3[O-])c2=O)CC1` [Example 38], the IC50 on recombinant human TGM2 came to 61 nM.
Consider `CN1CCN(C2CCN(C(=O)n3sc4c(ccc[n+]4[O-])c3=O)CC2)CC1` [Example 40], for which the IC50 at recombinant human TGM2 was determined as 340 nM.
With `CNC1CCN(C(=O)n2sc3c(ccc[n+]3[O-])c2=O)CC1` [Example 42], the IC50 on recombinant human TGM2 was 240 nM.
`NCC(=O)N1CCN(C(=O)n2sc3c(ccc[n+]3[O-])c2=O)CC1` [Example 44]: on recombinant human TGM2, the IC50 is 120 nM.
Take `O=C(N1CCC2(CCCN2)CC1)n1sc2c(ccc[n+]2[O-])c1=O` [Example 45]: at recombinant human TGM2, the IC50 is 4300 nM.
As to `O=C(N1CCN(c2ccc(N3CCCC3)nn2)CC1)n1sc2c(ccc[n+]2[O-])c1=O` [Example 46], at recombinant human TGM2, the IC50 turned out to be 140 nM.
`O=C([C@@H]1CCCN1)N1CCN(C(=O)n2sc3c(ccc[n+]3[O-])c2=O)CC1` [Example 50]: the IC50 at recombinant human TGM2 is 2300 nM.
As for `CCNCC(=O)N1CCN(C(=O)n2sc3c(ccc[n+]3[O-])c2=O)CC1` [Example 55], the IC50 on recombinant human TGM2 was determined as 2000 nM.
As to `O=C1CC[C@@H](C(=O)N2CCN(C(=O)n3sc4c(ccc[n+]4[O-])c3=O)CC2)N1` [Example 59], the IC50 on recombinant human TGM2 worked out at 1000 nM.
As to `O=C1NCCN1C1CCN(C(=O)n2sc3c(ccc[n+]3[O-])c2=O)CC1` [Example 62], at recombinant human TGM2, the IC50 came out at 3100 nM.
Regarding `COc1ccc(C(=O)N2CCN(C(=O)n3sc4ncccc4c3=O)CC2)cc1OC` [Example 68], the IC50 on recombinant human TGM2 worked out at 65 nM.
Turning to `COc1ccc(C(=O)N2CCN(C(=O)n3sc4c(ccc[n+]4[O-])c3=O)CC2)cc1OC` [Example 69], the IC50 on recombinant human TGM2 was 54 nM.
As for `CC(=O)N1CCN(C(=O)n2sc3c(ccc[n+]3[O-])c2=O)CC1` [Example 70], on recombinant human TGM2, the IC50 is 62 nM.
On to `O=C(N1CCNCC1)n1sc2c(ccc[n+]2[O-])c1=O` [Example 72], for which, on recombinant human TGM2, the half-inhibitory concentration (IC50) was found to be 1200 nM.
Take `O=C(c1ccncc1)N1CCN(C(=O)n2sc3c(ccc[n+]3[O-])c2=O)CC1` [Example 74]: the IC50 at recombinant human TGM2 was found to be 130 nM.
As for `CCCC(=O)C1CCN(C(=O)n2sc3c(ccc[n+]3[O-])c2=O)CC1` [Example 78], the IC50 on recombinant human TGM2 is 120 nM.
Still for that read-out and setting: the value for `O=C1CN(C(=O)n2sc3c(ccc[n+]3[O-])c2=O)CCN1` [Example 80] was 150 nM.
Regarding `C[C@@H]1CN(C(=O)n2sc3c(ccc[n+]3[O-])c2=O)C[C@H](C)O1` [Example 81], the IC50 at recombinant human TGM2 was 2900 nM.
For the compound `COCCC(=O)N1CCN(C(=O)n2sc3c(ccc[n+]3[O-])c2=O)CC1` [Example 83], the IC50 at recombinant human TGM2 was 750 nM.
Regarding `NC(=O)N1CCN(C(=O)n2sc3c(ccc[n+]3[O-])c2=O)CC1` [Example 84], the IC50 at recombinant human TGM2 stood at 1700 nM.
Consider `O=C(N1CCC(O)CC1)n1sc2c(ccc[n+]2[O-])c1=O` [Example 86], for which the IC50 on recombinant human TGM2 was determined as 2100 nM.
Turning to `O=C(c1ccccn1)N1CCN(C(=O)n2sc3c(ccc[n+]3[O-])c2=O)CC1` [Example 89], the IC50 at recombinant human TGM2 is 72 nM.
For the compound `NCCSSCCN` [cystamine], the “active TGFβ1 in chondrocytes” value in the assay on chondrocytes is listed as “decrease”.
